Data on seven compounds can be found in ChEMBL document CHEMBL4145442, “Novel LCK/FMS inhibitors based on phenoxypyrimidine scaffold as potential treatment for inflammatory disorders” (Eur J Med Chem, 2017).

Data set [1] concerns the target T1, Tyrosine-protein kinase Lck (Homo sapiens, UniProt P06239). Nature of the data set: Inhibition of LCK (unknown origin) after 120 mins in presence of 33P-ATP.
Target sequence in this assay (P06239 whole entry): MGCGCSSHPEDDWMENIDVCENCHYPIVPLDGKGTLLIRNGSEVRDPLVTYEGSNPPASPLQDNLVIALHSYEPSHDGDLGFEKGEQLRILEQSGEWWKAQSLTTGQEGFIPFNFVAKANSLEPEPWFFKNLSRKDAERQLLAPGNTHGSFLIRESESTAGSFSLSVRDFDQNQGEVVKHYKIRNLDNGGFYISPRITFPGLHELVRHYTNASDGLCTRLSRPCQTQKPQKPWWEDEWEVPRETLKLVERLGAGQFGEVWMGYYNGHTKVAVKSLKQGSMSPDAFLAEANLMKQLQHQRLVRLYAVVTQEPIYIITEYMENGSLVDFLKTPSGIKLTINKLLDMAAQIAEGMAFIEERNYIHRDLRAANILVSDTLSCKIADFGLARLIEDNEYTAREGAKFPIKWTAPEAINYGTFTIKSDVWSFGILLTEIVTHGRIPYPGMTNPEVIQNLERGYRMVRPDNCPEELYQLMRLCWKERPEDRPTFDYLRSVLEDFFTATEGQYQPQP
For data set [2], the system named is RAW264.7. Put plainly: (§1) Cytotoxicity against mouse RAW264.7 cells after 4 hrs by MTT assay. The format is cell-based. To be noted: Mus musculus, RAW264.7, 4 h. (Formazan colour is commonly taken as a measure of viable cells.)
The test system of data set [3] is RAW264.7. Put plainly: Inhibition of LPS-induced NO production in mouse RAW264.7 cells after 24 hrs by Griess assay. Type of data set: functional, cell-based. As to conditions: RAW264.7, 24 h. On the technique in general: Nitrite, measured by Griess reagent, commonly stands in for NO production.
The target in data set [4] is Tyrosine-protein kinase Lyn (Homo sapiens, UniProt P07948).
Tyrosine-protein kinase Lyn, sequence (P07948 whole entry): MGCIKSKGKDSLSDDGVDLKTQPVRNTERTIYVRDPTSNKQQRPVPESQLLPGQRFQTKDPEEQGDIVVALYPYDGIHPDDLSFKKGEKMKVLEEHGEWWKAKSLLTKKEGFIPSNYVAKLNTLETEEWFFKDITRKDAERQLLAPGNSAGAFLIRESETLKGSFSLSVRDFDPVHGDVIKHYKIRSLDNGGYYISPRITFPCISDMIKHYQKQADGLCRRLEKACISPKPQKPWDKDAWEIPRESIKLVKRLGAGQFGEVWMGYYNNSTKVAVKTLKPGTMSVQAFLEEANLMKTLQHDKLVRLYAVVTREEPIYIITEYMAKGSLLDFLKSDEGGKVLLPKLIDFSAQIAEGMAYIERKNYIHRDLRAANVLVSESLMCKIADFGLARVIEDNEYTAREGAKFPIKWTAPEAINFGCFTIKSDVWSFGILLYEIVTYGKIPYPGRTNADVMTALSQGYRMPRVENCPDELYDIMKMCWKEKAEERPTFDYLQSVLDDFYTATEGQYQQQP
Description: Inhibition of LYN (unknown origin)
For data set [5], the target named is High affinity nerve growth factor receptor (Homo sapiens, UniProt P04629).
High affinity nerve growth factor receptor, sequence (P04629 whole entry): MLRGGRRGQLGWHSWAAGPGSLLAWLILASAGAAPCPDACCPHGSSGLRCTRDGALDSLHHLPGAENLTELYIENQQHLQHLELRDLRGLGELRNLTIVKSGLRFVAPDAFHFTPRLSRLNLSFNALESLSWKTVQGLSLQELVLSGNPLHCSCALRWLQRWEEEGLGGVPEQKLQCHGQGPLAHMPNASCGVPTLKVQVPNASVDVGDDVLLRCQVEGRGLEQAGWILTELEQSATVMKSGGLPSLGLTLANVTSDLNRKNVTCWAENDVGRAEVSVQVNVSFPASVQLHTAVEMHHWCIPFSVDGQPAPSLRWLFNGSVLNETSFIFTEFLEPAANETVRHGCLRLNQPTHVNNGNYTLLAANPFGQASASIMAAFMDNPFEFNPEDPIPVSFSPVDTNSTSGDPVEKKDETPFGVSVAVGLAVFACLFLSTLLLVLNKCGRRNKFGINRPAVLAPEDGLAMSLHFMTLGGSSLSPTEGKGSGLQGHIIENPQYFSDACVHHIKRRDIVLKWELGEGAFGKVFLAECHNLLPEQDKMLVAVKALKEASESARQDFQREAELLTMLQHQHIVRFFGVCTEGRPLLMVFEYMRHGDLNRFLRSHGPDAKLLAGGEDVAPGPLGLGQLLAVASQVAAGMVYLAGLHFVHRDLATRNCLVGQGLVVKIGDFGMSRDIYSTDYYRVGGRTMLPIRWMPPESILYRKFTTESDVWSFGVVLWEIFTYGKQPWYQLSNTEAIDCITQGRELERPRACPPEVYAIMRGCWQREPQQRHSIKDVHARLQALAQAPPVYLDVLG
Description: Inhibition of TRKA (unknown origin)
In data set [6] the target is Homeodomain-interacting protein kinase 1 (Homo sapiens, UniProt Q86Z02). Nature of the data set: Inhibition of HIPK1 (unknown origin).
Homeodomain-interacting protein kinase 1, sequence (Q86Z02 whole entry): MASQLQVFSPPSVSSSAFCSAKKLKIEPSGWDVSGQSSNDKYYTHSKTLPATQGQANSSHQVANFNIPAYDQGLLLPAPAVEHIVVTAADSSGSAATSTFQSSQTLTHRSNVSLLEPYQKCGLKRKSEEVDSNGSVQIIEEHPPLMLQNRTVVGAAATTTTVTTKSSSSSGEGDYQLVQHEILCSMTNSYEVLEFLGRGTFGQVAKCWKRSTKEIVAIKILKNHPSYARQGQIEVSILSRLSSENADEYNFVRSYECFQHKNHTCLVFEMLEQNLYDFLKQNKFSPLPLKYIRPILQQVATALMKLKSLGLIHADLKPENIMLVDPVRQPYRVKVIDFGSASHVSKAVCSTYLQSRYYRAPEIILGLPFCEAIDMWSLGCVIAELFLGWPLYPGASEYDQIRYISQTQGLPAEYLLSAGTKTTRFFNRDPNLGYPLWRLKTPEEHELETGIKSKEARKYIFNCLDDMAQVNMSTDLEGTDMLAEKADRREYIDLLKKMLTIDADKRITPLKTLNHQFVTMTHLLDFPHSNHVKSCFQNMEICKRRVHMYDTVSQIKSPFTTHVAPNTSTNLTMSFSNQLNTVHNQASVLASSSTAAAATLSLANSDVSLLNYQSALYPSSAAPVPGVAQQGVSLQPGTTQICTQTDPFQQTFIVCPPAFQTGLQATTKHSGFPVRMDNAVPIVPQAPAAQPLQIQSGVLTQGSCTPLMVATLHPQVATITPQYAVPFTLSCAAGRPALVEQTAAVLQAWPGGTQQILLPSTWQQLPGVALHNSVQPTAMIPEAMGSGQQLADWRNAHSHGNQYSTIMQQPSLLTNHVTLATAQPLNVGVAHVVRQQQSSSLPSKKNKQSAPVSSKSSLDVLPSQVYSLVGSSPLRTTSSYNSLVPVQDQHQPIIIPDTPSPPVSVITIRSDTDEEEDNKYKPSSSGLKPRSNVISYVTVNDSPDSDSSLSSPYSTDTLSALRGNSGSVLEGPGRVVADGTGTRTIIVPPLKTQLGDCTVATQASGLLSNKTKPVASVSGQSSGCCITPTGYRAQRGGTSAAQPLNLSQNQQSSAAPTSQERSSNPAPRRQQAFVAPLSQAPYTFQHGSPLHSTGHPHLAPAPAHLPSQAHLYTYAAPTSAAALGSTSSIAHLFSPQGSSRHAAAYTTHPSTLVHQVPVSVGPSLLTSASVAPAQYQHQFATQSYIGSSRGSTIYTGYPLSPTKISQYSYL
For data set [7], the system named is RAW264.7. Nature of the data set: Antiinflammatory activity in mouse RAW264.7 cells assessed as inhibition of LPS-induced PGE2 production after 24 hrs by enzyme immunoassay. As to conditions: RAW264.7, 24 h. Type of data set: functional, cell-based.
Data set [8] deals with T1, Tyrosine-protein kinase Lck. Put plainly: Inhibition of LCK (unknown origin) assessed as remaining activity at 3 x 10^-5 M after 120 mins in presence of 33P-ATP (reference value: […]% to […]%). As to conditions: at 30 µM.
Target sequence in this assay (P06239 2-509 limits assumed): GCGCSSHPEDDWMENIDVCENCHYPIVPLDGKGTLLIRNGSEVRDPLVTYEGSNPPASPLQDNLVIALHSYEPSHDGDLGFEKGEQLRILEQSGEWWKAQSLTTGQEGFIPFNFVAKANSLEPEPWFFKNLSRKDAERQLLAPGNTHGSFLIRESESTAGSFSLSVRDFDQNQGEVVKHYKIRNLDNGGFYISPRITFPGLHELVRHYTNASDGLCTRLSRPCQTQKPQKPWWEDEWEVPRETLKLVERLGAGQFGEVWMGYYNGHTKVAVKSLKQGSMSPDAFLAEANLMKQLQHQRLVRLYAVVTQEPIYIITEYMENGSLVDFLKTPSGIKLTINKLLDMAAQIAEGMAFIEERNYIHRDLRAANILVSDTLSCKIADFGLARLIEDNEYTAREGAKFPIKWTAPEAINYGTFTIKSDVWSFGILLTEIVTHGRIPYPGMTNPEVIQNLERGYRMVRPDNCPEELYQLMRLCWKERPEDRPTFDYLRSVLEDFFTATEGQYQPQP
Data set [9] concerns the target Macrophage colony-stimulating factor 1 receptor (Homo sapiens, UniProt P07333). Put plainly: Inhibition of FMS (unknown origin) after 120 mins in presence of 33P-ATP.
The target of data set [10] is T1, Tyrosine-protein kinase Lck. Nature of the data set: Inhibition of LCK (unknown origin) assessed as remaining activity at 1 x 10^-5 M after 120 mins in presence of 33P-ATP (reference value: […]% to […]%). To be noted: at 10 µM.
Target sequence in this assay (P06239 2-509 limits assumed): as above
Data set [11] has the same target. Put plainly: Inhibition of LCK (unknown origin) assessed as remaining activity at 3.33 x 10^-6 M after 120 mins in presence of 33P-ATP (reference value: […]% to […]%). To be noted: at 3.33 µM.
Target sequence in this assay (P06239 2-509 limits assumed): as above
Data set [12] has the same target. Put plainly: Inhibition of LCK (unknown origin) assessed as remaining activity at […] x 10^-6 M after 120 mins in presence of 33P-ATP (reference value: […]% to […]%).
Target sequence in this assay (P06239 2-509 limits assumed): as above
For data set [13] the target is unchanged. Put plainly: Inhibition of LCK (unknown origin) assessed as remaining activity at 3.7 x 10^-7 M after 120 mins in presence of 33P-ATP (reference value: […]% to […]%). To be noted: at 0.37 µM.
Target sequence in this assay (P06239 2-509 limits assumed): as above
A short description of data set [14]: as §1. Type of data set: cell-based. To be noted: mouse, RAW264.7 cells.
Data set [15] deals with RAW264.7. Nature of the data set: Potency index, ratio of L-NIL IC50 to compound IC50 for inhibition of LPS-induced NO production in mouse RAW264.7 cells. The format is functional.
Data set [16] deals with RAW264.7. Nature of the data set: Antiinflammatory activity against mouse RAW264.7 cells assessed as inhibition of LPS induced COX-2 protein expression at 3 to 12 uM after 24 hrs by Western blot analysis. The format is functional, cell-based. On the technique in general: Immunoblotting shows a protein as a band on a membrane.
The subject of data set [17] is RAW264.7. Put plainly: Antiinflammatory activity against mouse RAW264.7 cells assessed as inhibition of LPS-induced iNOS protein expression at 3 to 12 uM after 24 hrs by Western blot analysis. The format is functional, cell-based.

A word on the IC50: it is the concentration that inhibits the measured activity by half. A word on the IC80: it is the concentration at which the effect reaches the 80% level. A high value points to a need for much substance.

Active and inactive are the calls of the source. The calls are words filed in the database; no cut-off is given here.

Macrophage colony-stimulating factor 1 receptor, sequence (P07333 whole entry): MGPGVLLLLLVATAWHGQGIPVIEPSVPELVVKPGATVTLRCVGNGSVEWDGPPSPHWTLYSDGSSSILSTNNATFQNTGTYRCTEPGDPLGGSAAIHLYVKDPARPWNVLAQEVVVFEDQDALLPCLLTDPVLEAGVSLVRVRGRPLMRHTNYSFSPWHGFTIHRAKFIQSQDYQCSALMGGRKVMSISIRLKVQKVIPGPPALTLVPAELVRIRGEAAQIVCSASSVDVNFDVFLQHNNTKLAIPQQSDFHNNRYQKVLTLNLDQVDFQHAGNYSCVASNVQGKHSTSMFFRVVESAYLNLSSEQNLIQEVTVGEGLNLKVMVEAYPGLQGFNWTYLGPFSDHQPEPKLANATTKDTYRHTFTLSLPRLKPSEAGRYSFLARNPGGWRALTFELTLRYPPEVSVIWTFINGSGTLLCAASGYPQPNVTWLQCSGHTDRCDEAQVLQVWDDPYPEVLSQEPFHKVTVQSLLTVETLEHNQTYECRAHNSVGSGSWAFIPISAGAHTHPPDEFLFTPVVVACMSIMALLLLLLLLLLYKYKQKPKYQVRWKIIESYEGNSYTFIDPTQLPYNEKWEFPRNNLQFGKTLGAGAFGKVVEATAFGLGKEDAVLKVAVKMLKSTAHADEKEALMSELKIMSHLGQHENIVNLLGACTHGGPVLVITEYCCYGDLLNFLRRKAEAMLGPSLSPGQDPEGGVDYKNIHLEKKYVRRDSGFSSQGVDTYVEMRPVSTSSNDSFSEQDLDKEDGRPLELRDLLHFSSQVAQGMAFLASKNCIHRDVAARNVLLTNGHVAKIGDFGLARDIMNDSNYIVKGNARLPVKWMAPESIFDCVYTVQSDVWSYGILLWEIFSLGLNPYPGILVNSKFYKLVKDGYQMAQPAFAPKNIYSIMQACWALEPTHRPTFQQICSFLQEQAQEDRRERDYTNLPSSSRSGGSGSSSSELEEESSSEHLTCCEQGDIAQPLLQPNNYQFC

Consider `COc1cc(NC(=O)Nc2cnc(Nc3ccc(N4CCOCC4)cc3)nc2Oc2ccc(C)cc2OC)cc(OC)c1`, for which the 50% inhibitory concentration (IC50) is 502 nM in data set [1]; above 80 µM in the data set on RAW264.7 [2]; above 80 µM in the data set with RAW264.7 [3]; 4.2 µM in [4]; 8.54 µM in data set [5].
In the case of `Cn1cc(C2=C(c3cn(CCCSC(=N)N)c4ccccc34)C(=O)NC2=O)c2ccccc21`, in data set [6], the midpoint of inhibition, the IC50, lay at 0.367 nM.
`CS(=O)(=O)Nc1ccc([N+](=O)[O-])cc1OC1CCCCC1` [NS-398]: the IC50 with RAW264.7 [7] came out at 7.23 nM.
For `COc1cc(/C=N/c2cnc(Nc3ccc(N4CCOCC4)cc3)nc2Oc2ccc(C)cc2OC)cc(OC)c1`, the IC50 in [1] was 106 nM; in data set [9], 883 nM; in the data set on RAW264.7 [3] it was above 1 µM. For the same compound, the Activity in data set [8] fell in the range of 4.38 to 7.22%; in data set [10], 7.1 to 8.37%; in data set [11] it was 10.3 to 12.6%; in data set [12], 21.3 to 26.9%; in data set [13], 28.8 to 37.5%. This compound also gave a concentration for an effect of 80% (IC80) at 4 h in [14] above 1 µM.
For `COc1cc(/C=N/c2cnc(Nc3ccc(N4CCOCC4)cc3)nc2Oc2ccc(C(F)(F)F)cc2)cc(OC)c1`, the IC50 in [1] stood at 12100 nM; in data set [9] it was 14 nM. The Activity in [8] lay within 49.4 to 59.3%; in data set [10], 43.8 to 52.2%; in [11], 58.4 to 60%; in data set [12], 61.8 to 72.5%; in [13], 83.1 to 91.7%.
As for `COc1ccc(Oc2nc(Nc3ccc(N4CCOCC4)cc3)ncc2/N=C/c2cc(OC)cc(OC)c2)cc1`, the IC50 in data set [1] came to 22 nM; in data set [9], 4.6 nM; in the data set with RAW264.7 [3], 10.3 µM; in the data set with RAW264.7 [7] it was 5220 nM. Moreover, the Activity is 44.8 to 48.5% in data set [8]; 27.4 to 28.3% in [10]; 30.3 to 32.9% in data set [11]; 37.8 to 39.9% in data set [12]; 53.2% in data set [13]. Also, in data set [14], the 80% effect concentration (IC80) at 4 h is above 12 µM. Also, the “Ratio IC50” value with RAW264.7 [15] is listed as above 2.5. Moreover, in the data set on RAW264.7 [16], the inhibition result was “inactive”. The inhibition entry with RAW264.7 [17] was “Active”.
On to `COc1cc(/C=N/c2cnc(Nc3ccc(N4CCOCC4)cc3)nc2Oc2ccc(F)cc2)cc(OC)c1`, for which the results for the IC50 in data set [1] and in data set [9] were 3170 nM and 21 nM, respectively. For the same compound, the Activity was in the range of 65.3 to 69.2% in [8]; 39.9 to 41% in data set [10]; 42.7 to 47.8% in data set [11]; 62.5 to 64.3% in data set [12]; 76.7 to 83.1% in [13].
